# Experimental data: the supplement of paper PMC10307832
# Legend:
# Assay in all cases: relative viability (nuclei count vs DMSO), 5 days (fraction); higher = more cells survive
# [1] = tested on: A549
# In short: (§1)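 Medians of duplicate plates are given as relative viability. That measure is the nuclei count in treated wells divided by the count in vehicle wells. Counts were taken on 4× images of lung cancer cell lines in 1536-well plates, 5 days after pin-tool dosing the day after seeding with one drug alone or a fixed anchor-drug dose plus five library-drug doses (not always all listed) in √10 steps.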
# [2] = tested on: ABC-1
# In short: as §1
# [3] = tested on: Calu-6
# In short: as §1
# [4] = tested on: EBC-1
# In short: as §1
# [5] = tested on: EKVX
# In short: as §1
# [6] = tested on: HCC-44
# In short: as §1
# [7] = tested on: IA-LM
# In short: as §1
# [8] = tested on: NCI-H1299
# In short: as §1
# [9] = tested on: NCI-H1648
# In short: as §1
# [10] = tested on: NCI-H1703
# In short: as §1
# [11] = tested on: NCI-H1993
# In short: as §1
# [12] = tested on: NCI-H2085
# In short: as §1
# [13] = tested on: NCI-H2126
# In short: as §1
# [14] = tested on: RERF-LC-KJ
# In short: as §1
compound,measurement,setting,value
Cc1sc2c(c1C)C(c1ccc(Cl)cc1)=N[C@@H](CC(=O)OC(C)(C)C)c1nnc(C)n1-2 [JQ1] + O=C(c1cc(Cc2n[nH]c(=O)c3ccccc23)ccc1F)N1CCN(C(=O)C2CC2)CC1 [Olaparib] (partner 8 µM),relative viability,[1]; first compound 0.04 µM,0.303
same,relative viability,[1]; first compound 0.1265 µM,0.213
same,relative viability,[1]; first compound 0.4 µM,0.255
same,relative viability,[1]; first compound 1.265 µM,0.102
same,relative viability,[1]; first compound 4 µM,0.045
same,relative viability,[2]; first compound 0.04 µM,0.772
same,relative viability,[2]; first compound 0.1265 µM,0.575
same,relative viability,[2]; first compound 0.4 µM,0.744
same,relative viability,[2]; first compound 1.265 µM,0.748
same,relative viability,[2]; first compound 4 µM,0.385
same,relative viability,[3]; first compound 0.04 µM,0.536
same,relative viability,[3]; first compound 0.1265 µM,0.408
same,relative viability,[3]; first compound 0.4 µM,0.511
same,relative viability,[3]; first compound 1.265 µM,0.251
same,relative viability,[3]; first compound 4 µM,0.249
same,relative viability,[4]; first compound 0.04 µM,0.74
same,relative viability,[4]; first compound 0.1265 µM,0.473
same,relative viability,[4]; first compound 0.4 µM,0.312
same,relative viability,[4]; first compound 1.265 µM,0.093
same,relative viability,[4]; first compound 4 µM,0.113
same,relative viability,[5]; first compound 0.04 µM,0.836
same,relative viability,[5]; first compound 0.1265 µM,0.817
same,relative viability,[5]; first compound 0.4 µM,0.825
same,relative viability,[5]; first compound 1.265 µM,0.78
same,relative viability,[5]; first compound 4 µM,0.399
same,relative viability,[6]; first compound 0.04 µM,0.978
same,relative viability,[6]; first compound 0.1265 µM,1.03
same,relative viability,[6]; first compound 0.4 µM,0.893
same,relative viability,[6]; first compound 1.265 µM,0.851
same,relative viability,[6]; first compound 4 µM,0.442
same,relative viability,[7]; first compound 0.04 µM,0.739
same,relative viability,[7]; first compound 0.1265 µM,0.508
same,relative viability,[7]; first compound 0.4 µM,0.17
same,relative viability,[7]; first compound 1.265 µM,0.115
same,relative viability,[7]; first compound 4 µM,0.117
same,relative viability,[8]; first compound 0.04 µM,0.931
same,relative viability,[8]; first compound 0.1265 µM,0.787
same,relative viability,[8]; first compound 0.4 µM,0.972
same,relative viability,[8]; first compound 1.265 µM,0.298
same,relative viability,[8]; first compound 4 µM,0.235
same,relative viability,[9]; first compound 0.04 µM,0.66
same,relative viability,[9]; first compound 0.1265 µM,1.03
same,relative viability,[9]; first compound 0.4 µM,0.462
same,relative viability,[9]; first compound 1.265 µM,0.485
same,relative viability,[9]; first compound 4 µM,0.289
same,relative viability,[10]; first compound 0.04 µM,0.458
same,relative viability,[10]; first compound 0.4 µM,0.498
same,relative viability,[10]; first compound 1.265 µM,0.236
same,relative viability,[10]; first compound 4 µM,0.234
same,relative viability,[11]; first compound 0.04 µM,0.922
same,relative viability,[11]; first compound 0.1265 µM,0.994
same,relative viability,[11]; first compound 0.4 µM,1.1
same,relative viability,[11]; first compound 1.265 µM,0.807
same,relative viability,[11]; first compound 4 µM,0.584
same,relative viability,[12]; first compound 0.04 µM,0.781
same,relative viability,[12]; first compound 0.1265 µM,0.696
same,relative viability,[12]; first compound 0.4 µM,0.693
same,relative viability,[12]; first compound 1.265 µM,0.601
same,relative viability,[12]; first compound 4 µM,0.604
same,relative viability,[13]; first compound 0.04 µM,0.895
same,relative viability,[13]; first compound 0.1265 µM,0.909
same,relative viability,[13]; first compound 0.4 µM,0.951
same,relative viability,[13]; first compound 1.265 µM,0.8
same,relative viability,[13]; first compound 4 µM,0.735
same,relative viability,[14]; first compound 0.04 µM,0.904
same,relative viability,[14]; first compound 0.1265 µM,0.808
same,relative viability,[14]; first compound 0.4 µM,0.669
same,relative viability,[14]; first compound 1.265 µM,0.42
same,relative viability,[14]; first compound 4 µM,0.338
COc1cc2nccc(Oc3ccc(NC(=O)Nc4cc(C)on4)c(Cl)c3)c2cc1OC [Tivozanib] + NC(=O)Nc1cc(-c2cccc(F)c2)sc1C(=O)N[C@H]1CCCNC1 [AZD7762] (partner 0.2 µM),relative viability,[2]; first compound 0.005 µM,1.05
same,relative viability,[2]; first compound 0.01581 µM,0.865
same,relative viability,[2]; first compound 0.05 µM,0.895
same,relative viability,[2]; first compound 0.1581 µM,1.12
same,relative viability,[2]; first compound 0.5 µM,0.785
same,relative viability,[5]; first compound 0.005 µM,0.592
same,relative viability,[5]; first compound 0.01581 µM,0.695
same,relative viability,[5]; first compound 0.05 µM,0.76
same,relative viability,[5]; first compound 0.1581 µM,0.69
same,relative viability,[5]; first compound 0.5 µM,0.689
same,relative viability,[6]; first compound 0.005 µM,0.996
same,relative viability,[6]; first compound 0.01581 µM,0.963
same,relative viability,[6]; first compound 0.05 µM,1.01
same,relative viability,[6]; first compound 0.1581 µM,1.09
same,relative viability,[6]; first compound 0.5 µM,1.01
same,relative viability,[9]; first compound 0.005 µM,0.666
same,relative viability,[9]; first compound 0.01581 µM,0.708
same,relative viability,[9]; first compound 0.05 µM,0.693
same,relative viability,[9]; first compound 0.1581 µM,0.585
same,relative viability,[9]; first compound 0.5 µM,0.695
same,relative viability,[10]; first compound 0.005 µM,0.124
same,relative viability,[10]; first compound 0.01581 µM,0.112
same,relative viability,[10]; first compound 0.05 µM,0.139
same,relative viability,[10]; first compound 0.1581 µM,0.143
same,relative viability,[10]; first compound 0.5 µM,0.118
same,relative viability,[11]; first compound 0.005 µM,0.722
same,relative viability,[11]; first compound 0.01581 µM,0.714
same,relative viability,[11]; first compound 0.05 µM,0.968
same,relative viability,[11]; first compound 0.1581 µM,0.631
same,relative viability,[11]; first compound 0.5 µM,0.664
same,relative viability,[12]; first compound 0.005 µM,0.881
same,relative viability,[12]; first compound 0.01581 µM,0.862
same,relative viability,[12]; first compound 0.05 µM,1.05
same,relative viability,[12]; first compound 0.1581 µM,0.912
same,relative viability,[12]; first compound 0.5 µM,0.887
same,relative viability,[13]; first compound 0.005 µM,1.06
same,relative viability,[13]; first compound 0.01581 µM,0.936
same,relative viability,[13]; first compound 0.05 µM,1.02
same,relative viability,[13]; first compound 0.1581 µM,0.732
same,relative viability,[13]; first compound 0.5 µM,1.01
same,relative viability,[14]; first compound 0.005 µM,0.701
same,relative viability,[14]; first compound 0.01581 µM,0.925
same,relative viability,[14]; first compound 0.05 µM,1.07
same,relative viability,[14]; first compound 0.1581 µM,0.659
same,relative viability,[14]; first compound 0.5 µM,0.892
COc1cc2nccc(Oc3ccc(NC(=O)Nc4cc(C)on4)c(Cl)c3)c2cc1OC [Tivozanib] + O=C(c1cc(Cc2n[nH]c(=O)c3ccccc23)ccc1F)N1CCN(C(=O)C2CC2)CC1 [Olaparib] (partner 8 µM),relative viability,[1]; first compound 0.005 µM,0.349
same,relative viability,[1]; first compound 0.01581 µM,0.456
same,relative viability,[1]; first compound 0.05 µM,0.398
same,relative viability,[1]; first compound 0.1581 µM,0.0913
same,relative viability,[1]; first compound 0.5 µM,0.246
same,relative viability,[2]; first compound 0.005 µM,0.815
same,relative viability,[2]; first compound 0.01581 µM,0.837
same,relative viability,[2]; first compound 0.05 µM,0.579
same,relative viability,[2]; first compound 0.1581 µM,1.02
same,relative viability,[2]; first compound 0.5 µM,0.67
same,relative viability,[3]; first compound 0.005 µM,0.581
same,relative viability,[3]; first compound 0.01581 µM,0.618
same,relative viability,[3]; first compound 0.05 µM,0.522
same,relative viability,[3]; first compound 0.1581 µM,0.671
same,relative viability,[3]; first compound 0.5 µM,0.519
same,relative viability,[4]; first compound 0.005 µM,0.642
same,relative viability,[4]; first compound 0.01581 µM,0.704
same,relative viability,[4]; first compound 0.05 µM,0.708
same,relative viability,[4]; first compound 0.1581 µM,0.777
same,relative viability,[4]; first compound 0.5 µM,0.736
same,relative viability,[5]; first compound 0.005 µM,0.801
same,relative viability,[5]; first compound 0.01581 µM,0.881
same,relative viability,[5]; first compound 0.05 µM,0.908
same,relative viability,[5]; first compound 0.1581 µM,0.922
same,relative viability,[5]; first compound 0.5 µM,0.725
same,relative viability,[6]; first compound 0.005 µM,0.967
same,relative viability,[6]; first compound 0.01581 µM,0.911
same,relative viability,[6]; first compound 0.05 µM,0.998
same,relative viability,[6]; first compound 0.1581 µM,0.949
same,relative viability,[6]; first compound 0.5 µM,0.999
same,relative viability,[7]; first compound 0.005 µM,0.867
same,relative viability,[7]; first compound 0.01581 µM,0.891
same,relative viability,[7]; first compound 0.05 µM,0.857
same,relative viability,[7]; first compound 0.1581 µM,0.697
same,relative viability,[7]; first compound 0.5 µM,0.672
same,relative viability,[8]; first compound 0.005 µM,0.969
same,relative viability,[8]; first compound 0.01581 µM,1.01
same,relative viability,[8]; first compound 0.05 µM,0.962
same,relative viability,[8]; first compound 0.1581 µM,0.965
same,relative viability,[8]; first compound 0.5 µM,0.844
same,relative viability,[9]; first compound 0.005 µM,1
same,relative viability,[9]; first compound 0.01581 µM,0.736
same,relative viability,[9]; first compound 0.05 µM,0.799
same,relative viability,[9]; first compound 0.1581 µM,1.25
same,relative viability,[9]; first compound 0.5 µM,0.713
same,relative viability,[10]; first compound 0.005 µM,0.216
same,relative viability,[10]; first compound 0.01581 µM,0.256
same,relative viability,[10]; first compound 0.05 µM,0.241
same,relative viability,[10]; first compound 0.1581 µM,0.177
same,relative viability,[10]; first compound 0.5 µM,0.146
same,relative viability,[11]; first compound 0.005 µM,0.849
same,relative viability,[11]; first compound 0.01581 µM,1.03
same,relative viability,[11]; first compound 0.05 µM,0.988
same,relative viability,[11]; first compound 0.1581 µM,0.692
same,relative viability,[11]; first compound 0.5 µM,1.1
same,relative viability,[12]; first compound 0.005 µM,0.712
same,relative viability,[12]; first compound 0.01581 µM,0.848
same,relative viability,[12]; first compound 0.05 µM,0.876
same,relative viability,[12]; first compound 0.1581 µM,0.946
same,relative viability,[12]; first compound 0.5 µM,0.734
same,relative viability,[13]; first compound 0.005 µM,0.954
same,relative viability,[13]; first compound 0.01581 µM,0.907
same,relative viability,[13]; first compound 0.05 µM,1
same,relative viability,[13]; first compound 0.1581 µM,0.845
same,relative viability,[13]; first compound 0.5 µM,0.899
same,relative viability,[14]; first compound 0.005 µM,0.97
same,relative viability,[14]; first compound 0.01581 µM,0.954
same,relative viability,[14]; first compound 0.05 µM,0.974
same,relative viability,[14]; first compound 0.1581 µM,0.929
same,relative viability,[14]; first compound 0.5 µM,0.875
